Experimental data taken from patent US10105357B2, “Indication of antibiotic drugs for preparation of cancer inhibition pharmaceutical composition” (LAUNX BIOMEDICAL CO., LTD., priority 2014, dated 2018).
Where a name gives a salt, the structure may show the parent alone. Read-outs that look alike come from different tables or passages of the source.

Assays:
Type in all cases: cell-based, human
[1] = system: MCF7 (Mammary Gland, Adenocarcinoma); assay: Cell viability analysis, breast cancer MCF7; settings: for viability at 10 µM: Homo sapiens
[2] = system: A375 (Amelanotic Melanoma); assay: Cell viability analysis, skin cancer A375; settings: for viability at 10 µM: Homo sapiens
[3] = system: LoVo (Colorectal Adenocarcinoma); assay: Cell viability analysis, colon cancer LoVo; settings: for viability at 10 µM: Homo sapiens, LoVo
[4] = system: A549 (Lung Adenocarcinoma); assay: Cell viability analysis, lung cancer A549; settings: for viability at 10 µM: Homo sapiens
[5] = system: AGS (Gastric Adenocarcinoma); assay: Cell viability analysis, gastric cancer AGS; settings: for viability at 10 µM: Homo sapiens
[6] = system: HI650 (Lung Adenocarcinoma); assay: Cell viability analysis, lung cancer HI650; settings: for viability at 10 µM: Homo sapiens
[7] = system: HeLa (Cervix Adenocarcinoma); assay: Cell viability analysis, cervical cancer HeLa; settings: for viability at 10 µM: Homo sapiens, HeLa
[8] = system: HepG2 (Hepatocellular Carcinoma); assay: Cell viability analysis, hepatic cancer HepG2; settings: for viability at 10 µM: Homo sapiens
[9] = system: HL-60 (Acute Promyelocytic Leukemia); assay: Cell viability analysis, leukemia HL-60; settings: for viability at 10 µM: Homo sapiens
[10] = system: PC3 (p53−) (Prostate Adenocarcinoma); assay: Cell viability analysis, prostate cancer PC3; settings: for viability at 10 µM: Homo sapiens
[11] = system: TSGH-8301 (Urinary Bladder Carcinoma); assay: Cell viability analysis, bladder cancer TSGH-8301; settings: for viability at 10 µM: Homo sapiens
[12] = system: MKN-45 (Gastric Adenocarcinoma); assay: Cell viability analysis, gastric cancer MKN-45; settings: for viability at 10 µM: Homo sapiens
[13] = MCF7, 72 h, drug 10 μM, 72 hours, WST-1, OD450 nm, read-out: cell viability (survival rate), MCF7
[14] = A-375, 72 h, drug 10 μM, 72 hours, WST-1, OD450 nm, read-out: cell viability (survival rate), A375
[15] = 72 h, read-out: cell viability (survival rate), LoVo, drug 10 μM, 72 hours, WST-1, OD450 nm
[16] = A549, 72 h, drug 10 μM, 72 hours, WST-1, OD450 nm, read-out: cell viability (survival rate), A549
[17] = 72 h, drug 10 μM, 72 hours, WST-1, OD450 nm, read-out: cell viability (survival rate), AGS
[18] = NCI-H1650, 72 h, drug 10 μM, 72 hours, WST-1, OD450 nm, read-out: cell viability (survival rate), H1650
[19] = 72 h, drug 10 μM, 72 hours, WST-1, OD450 nm, read-out: cell viability (survival rate), HeLa
[20] = HepG2, 72 h, drug 10 μM, 72 hours, WST-1, OD450 nm, read-out: cell viability (survival rate), HepG2
[21] = HL-60, 72 h, drug 10 μM, 72 hours, WST-1, OD450 nm, read-out: cell viability (survival rate), HL-60
[22] = 72 h, drug 10 μM, 72 hours, WST-1, OD450 nm, read-out: cell viability (survival rate), PC3
[23] = 72 h, drug 10 μM, 72 hours, WST-1, OD450 nm, read-out: cell viability (survival rate), TSGH
[24] = MKN-45, 72 h, drug 10 μM, 72 hours, WST-1, OD450 nm, read-out: cell viability (survival rate), MKN-45
[25] = MCF7, 72 h, read-out: cell viability (survival rate), MCF7, drug 10 μM, 72 hours, WST-1, OD450 nm
[26] = A-375, 72 h, read-out: cell viability (survival rate), A375, drug 10 μM, 72 hours, WST-1, OD450 nm
[27] = A549, 72 h, read-out: cell viability (survival rate), A549, drug 10 μM, 72 hours, WST-1, OD450 nm
[28] = 72 h, read-out: cell viability (survival rate), AGS, drug 10 μM, 72 hours, WST-1, OD450 nm
[29] = NCI-H1650, 72 h, read-out: cell viability (survival rate), H1650, drug 10 μM, 72 hours, WST-1, OD450 nm
[30] = 72 h, read-out: cell viability (survival rate), HeLa, drug 10 μM, 72 hours, WST-1, OD450 nm
[31] = HepG2, 72 h, read-out: cell viability (survival rate), HepG2, drug 10 μM, 72 hours, WST-1, OD450 nm
[32] = HL-60, 72 h, read-out: cell viability (survival rate), HL-60, drug 10 μM, 72 hours, WST-1, OD450 nm
[33] = 72 h, read-out: cell viability (survival rate), PC3, drug 10 μM, 72 hours, WST-1, OD450 nm
[34] = 72 h, read-out: cell viability (survival rate), TSGH, drug 10 μM, 72 hours, WST-1, OD450 nm
[35] = MKN-45, 72 h, read-out: cell viability (survival rate), MKN-45, drug 10 μM, 72 hours, WST-1, OD450 nm
[36] = drug 10 μM, 72 hours, WST-1, OD450 nm

CCOC(=O)CCC(=O)O[C@H]1[C@H](O[C@@H]2[C@@H](C)[C@H](O[C@H]3C[C@@](C)(OC)[C@@H](O)[C@H](C)O3)[C@@H](C)C(=O)O[C@H](CC)[C@@](C)(O)[C@H](O)[C@@H](C)C(=O)[C@H](C)C[C@@]2(C)O)O[C@H](C)C[C@@H]1N(C)C [Erythromycin Ethylsuccinate]
viability at 10 µM ([1]; MCF7, drug 10 μM, 72 hours, WST-1, OD450 nm, read-out: cell viability (survival rate), MCF7): 88.2%
viability at 10 µM ([2]; A-375, drug 10 μM, 72 hours, WST-1, OD450 nm, read-out: cell viability (survival rate), A375): 75%
viability at 10 µM ([3]; drug 10 μM, 72 hours, WST-1, OD450 nm, read-out: cell viability (survival rate), LoVo): 80%
viability at 10 µM ([4]; A549, drug 10 μM, 72 hours, WST-1, OD450 nm, read-out: cell viability (survival rate), A549): 90%
viability at 10 µM ([5]; drug 10 μM, 72 hours, WST-1, OD450 nm, read-out: cell viability (survival rate), AGS): 111%
viability at 10 µM ([6]; NCI-H1650, drug 10 μM, 72 hours, WST-1, OD450 nm, read-out: cell viability (survival rate), H1650): 83.8%
viability at 10 µM ([7]; drug 10 μM, 72 hours, WST-1, OD450 nm, read-out: cell viability (survival rate), HeLa): 148%
viability at 10 µM ([8]; HepG2, drug 10 μM, 72 hours, WST-1, OD450 nm, read-out: cell viability (survival rate), HepG2): 97.1%
viability at 10 µM ([9]; HL-60, drug 10 μM, 72 hours, WST-1, OD450 nm, read-out: cell viability (survival rate), HL-60): 83.6%
viability at 10 µM ([10]; drug 10 μM, 72 hours, WST-1, OD450 nm, read-out: cell viability (survival rate), PC3): 112%
viability at 10 µM ([11]; drug 10 μM, 72 hours, WST-1, OD450 nm, read-out: cell viability (survival rate), TSGH): 125%
viability at 10 µM ([12]; MKN-45, drug 10 μM, 72 hours, WST-1, OD450 nm, read-out: cell viability (survival rate), MKN-45): 129%

Nc1nc(NC2CC2)c2ncn([C@H]3C=C[C@@H](CO)C3)c2n1 [Abacavir sulfate]
viability at 10 µM [1, 13]: 79.6%
viability at 10 µM [2, 14]: 57.2%
viability at 10 µM [3, 15]: 100%
viability at 10 µM [4, 16]: 87%
viability at 10 µM [5, 17]: 97.1%
viability at 10 µM [6, 18]: 67%
viability at 10 µM [7, 19]: 84.2%
viability at 10 µM [8, 20]: 82.6%
viability at 10 µM [9, 21]: 108%
viability at 10 µM [10, 22]: 76%
viability at 10 µM [11, 23]: 148%
viability at 10 µM [12, 24]: 94.6%

CC[C@H]1OC(=O)[C@H](C)[C@@H](O[C@H]2C[C@@](C)(OC)[C@@H](O)[C@H](C)O2)[C@H](C)[C@@H](O[C@@H]2O[C@H](C)C[C@H](N(C)C)[C@H]2O)[C@](C)(O)C[C@@H](C)[C@@H]2N[C@@H](COCCOC)O[C@H]([C@H]2C)[C@]1(C)O [Dirithromycin]
viability at 10 µM [1, 25]: 62.6%
viability at 10 µM [2, 26]: 83.7%
viability at 10 µM [3, 15]: 83.7%
viability at 10 µM [4, 27]: 64.8%
viability at 10 µM [5, 28]: 63.2%
viability at 10 µM [6, 29]: 65.5%
viability at 10 µM [7, 30]: 91.9%
viability at 10 µM [8, 31]: 90.6%
viability at 10 µM [9, 32]: 90.2%
viability at 10 µM [10, 33]: 77.1%
viability at 10 µM [11, 34]: 77.2%
viability at 10 µM [12, 35]: 106%

CCC[C@@H]1C[C@@H](C(=O)N[C@@H]([C@H]2O[C@H](SC)[C@H](OP(=O)(O)O)[C@@H](O)[C@H]2O)[C@H](C)Cl)N(C)C1 [Clindamycin phosphate]
viability at 10 µM [1, 25]: 38.3%
viability at 10 µM [2, 26]: 81.3%
viability at 10 µM [3, 15]: 44.4%
viability at 10 µM [4, 27]: 31%
viability at 10 µM [5, 28]: 91.6%
viability at 10 µM [6, 29]: 87%
viability at 10 µM [7, 30]: 61.4%
viability at 10 µM [8, 31]: 90.2%
viability at 10 µM [9, 32]: 110%
viability at 10 µM [10, 33]: 40%
viability at 10 µM [11, 34]: 79.6%
viability at 10 µM [12, 35]: 85.6%

Nc1ccn([C@@H]2CS[C@H](CO)O2)c(=O)n1 [Lamivudine (Epivir), Lamivudine]
viability at 10 µM [1, 25]: 83.2%
viability at 10 µM [2, 26]: 95.8%
viability at 10 µM [3, 15]: 71.3%
viability at 10 µM [4, 27]: 75.2%
viability at 10 µM [5, 28]: 44.7%
viability at 10 µM [6, 29]: 54.1%
viability at 10 µM [7, 30]: 86.4%
viability at 10 µM [8, 31]: 108%
viability at 10 µM [9, 32]: 119%
viability at 10 µM [10, 33]: 110%
viability at 10 µM [11, 34]: 71.1%
viability at 10 µM [12, 35]: 47.7%

CN(C/C=C/C#CC(C)(C)C)Cc1cccc2ccccc12.Cl [Terbinafine HCl (Lamisil)]
cell viability (survival rate), MCF7 [1, 36]: 67.7
cell viability (survival rate), A375 [2, 36]: 92.5
cell viability (survival rate), LoVo [3, 36]: 71.4
cell viability (survival rate), A549 [4, 36]: 52.3
cell viability (survival rate), AGS [5, 36]: 90.6
cell viability (survival rate), H1650 [6, 36]: 40.6
cell viability (survival rate), HeLa [7, 36]: 75.4
cell viability (survival rate), HepG2 [8, 36]: 91.1
cell viability (survival rate), HL-60 [9, 36]: 86.5
cell viability (survival rate), PC3 [10, 36]: 70.8
cell viability (survival rate), TSGH [11, 36]: 50.6
cell viability (survival rate), MKN-45 [12, 36]: 81.8

CC(=O)[C@@]1(O)CC[C@H]2[C@@H]3CCC4=CC(=O)CCC4=C3[C@@H](c3ccc(N(C)C)cc3)C[C@@]21C [Ulipristal]
viability at 10 µM [1, 13]: 65.4%
viability at 10 µM [2, 14]: 48.2%
viability at 10 µM [3, 15]: 67.8%
viability at 10 µM [4, 16]: 59.9%
viability at 10 µM [5, 17]: 55.4%
viability at 10 µM [6, 18]: 40.3%
viability at 10 µM [7, 19]: 72.4%
viability at 10 µM [8, 20]: 69%
viability at 10 µM [9, 21]: 93.8%
viability at 10 µM [10, 22]: 49.3%
viability at 10 µM [11, 23]: 55.8%
viability at 10 µM [12, 24]: 36.1%
